Results reported in patent US20180193372A1, “NOVEL BIOMARKER FOR DIAGNOSING RESISTANCE TO ANTICANCER AGENT FOR BILLARY TRACT CANCER AND USE THEREOF” (COWELL BIODIGM CO., LTD., priority 2015, published 2018).

How the values were obtained:
SNU1196/GR cells [1] = test: MTT assay of anticancer agent susceptibility after inhibiting TAGLN2 expression; assay type: cell-based, human; conditions: for change in susceptibility to anticancer agent when TAGLN2 expression was inhibited: TAGLN2 siRNA transfection
Protocol: As siRNA for TAGLN2, sc-106633 produced by Santa Cruz Biotechnology was used, and as control siRNA, sc-37007 (Santa Cruz Biotechnology) was used. An anticancer agent (gemcitabine)-resistant biliary tract cancer cell line SNU1196/GR was transfected with each of control siRNA and TAGLN2 siRNA using a lipofectamine RNAiMAX transfection reagent (Invitrogen), and after 24 hours, was cultured for 72 hours by treating with gemcitabine at various concentrations. The cell line reacted with an MTT solution (Sigma-Aldrich) for 3 hours, and then absorbance at 570 nm was measured by treating with DMSO to determine whether the anticancer agent resistance was overcome through inhibition of TAGLN2 expression in the anticancer agent-resistant biliary tract cancer cell line. The inhibition of the expression by TAGLN2 siRNA was confirmed by western blotting after 72 hours of the transfection.

SNU1196/GR cells [2] = test: MTT assay confirming resistance to anticancer agent (gemcitabine), resistant line; assay type: cell-based, human; conditions: SNU1196/GR vs SNU1196/P, 72 hours
Protocol: To create an anticancer agent-resistant biliary tract cancer cell line, a SNU1196 cell line was treated with gemcitabine at various concentrations and then subjected to MTT assay to calculate an IC50 value, and the cells were treated with gemcitabine at a concentration of IC50 for 3 days. After 3 days, when the cells were recovered after being cultured in a drug-free growth medium [10% fetal bovine serum (FBS; Hyclone)-containing RPMI1640 (Invitrogen Gibco)], the cells were recovered by treating with gemcitabine at double the IC50 concentration for 3 days, and an anticancer agent-resistant cell line (named SNU1196/GR) was established by repeating such a cell culturing procedure for 1 year. Whether the resistance to the anticancer agent was acquired was confirmed by MTT assay. Cells derived from biliary tract cancer cell line SNU1196 and anticancer agent-resistant biliary tract cancer cell line SNU1196/GR were attached to 96-well plates at 3×10^3 cells/well, and the following day, the cells were cultured for 72 hours by treating with gemcitabine at various concentrations. […] After 3 hours, the MTT solution was removed, and then absorbance was measured at 570 nm by adding dimethyl sulfoxide (DMSO) at 100 μl/well.

SNU1196/P cells = test: MTT assay with gemcitabine, parent cell line; assay type: cell-based; conditions: Homo sapiens, 10 nM stated to be lower than the IC50, read-out: IC50 concentration of parent cell line
Protocol: To create an anticancer agent-resistant biliary tract cancer cell line, a SNU1196 cell line was treated with gemcitabine at various concentrations and then subjected to MTT assay to calculate an IC50 value, and the cells were treated with gemcitabine at a concentration of IC50 for 3 days. After 3 days, when the cells were recovered after being cultured in a drug-free growth medium [10% fetal bovine serum (FBS; Hyclone)-containing RPMI1640 (Invitrogen Gibco)], the cells were recovered by treating with gemcitabine at double the IC50 concentration for 3 days, and an anticancer agent-resistant cell line (named SNU1196/GR) was established by repeating such a cell culturing procedure for 1 year. Whether the resistance to the anticancer agent was acquired was confirmed by MTT assay.
Cells derived from biliary tract cancer cell line SNU1196 and anticancer agent-resistant biliary tract cancer cell line SNU1196/GR were attached to 96-well plates at 3×10^3 cells/well, and the following day, the cells were cultured for 72 hours by treating with gemcitabine at various concentrations. […] After 3 hours, the MTT solution was removed, and then absorbance was measured at 570 nm by adding dimethyl sulfoxide (DMSO) at 100 μl/well.

| SMILES | change in susceptibility to anticancer agent when TAGLN2 expression was inhibited (SNU1196/GR cells [1]) | other results |
| --- | --- | --- |
| O=c1[nH]cc(F)c(=O)[nH]1 [5-FU, 5-fluorourasil] | increased | – |
| N.N.O=C([O-])C1(C(=O)[O-])CCC1.[Pt+2] [carboplatin] | increased | – |
| N.N.[Cl][Pt][Cl] [cisplatin] | increased | – |
| C#Cc1cccc(Nc2ncnc3cc(OCCOC)c(OCCOC)cc23)c1 [erlotinib] | did not cause changes | – |
| COc1cc([C@@H]2c3cc4c(cc3[C@@H](O[C@@H]3O[C@@H]5CO[C@@H](C)O[C@H]5[C@H](O)[C@H]3O)[C@H]3COC(=O)[C@H]23)OCO4)cc(OC)c1O [etoposide] | did not cause changes | – |
| Nc1ccn([C@@H]2O[C@H](CO)[C@@H](O)C2(F)F)c(=O)n1 [gemcitabine] | – | IC50 value of SNU1196/GR cells for gemcitabine relative to parent cell line (SNU1196/GR cells [2]): 100 times; increase of anticancer agent susceptibility (SNU1196/GR cells [1]; co-treatment with TAGLN2 siRNA, gemcitabine 10 nM): 43%; IC50 (SNU1196/P cells): > 10 nM |
| CCc1c2c(nc3ccc(OC(=O)N4CCC(N5CCCCC5)CC4)cc13)-c1cc3c(c(=O)n1C2)COC(=O)[C@]3(O)CC [irinotecan] | did not cause changes | – |
| O=C1[O][Pt]2([NH][C@@H]3CCCC[C@H]3[NH]2)[O]C1=O [oxaliplatin] | increased | – |
